Data as given in patent US7259140B2, “Heparin-binding peptides and uses thereof” (Thomas Jefferson University, priority 2003, dated 2007).

Experiments:
[1] = test system: anti-Factor Xa Activity of the Low Molecular Weight Heparin Lovenox ®; assay: Anti-Factor Xa assay (Stachrom Heparin kit): neutralization of Lovenox in citrate or plasma in vitro; format: biochemical, human; conditions: for Lovenox ® Neutralized: Lovenox 0.7 U/ml
Experimental: The ability of peptides such as (ARKKAAKA)3VLVLVLVL (SEQ ID NO:5) to neutralize the anti-Factor Xa activity of UFH and LMWH in vitro was tested using the Stachrom Heparin kit (Diagnostica Stago), a standard hematology laboratory assay used to measure the anti-Factor Xa activity of heparin. The assay was performed using the low molecular weight heparin enoxaparin sodium (Lovenox®, Aventis Pharmaceuticals, Inc.), unfractionated heparin (UFH), or the non-heparin glycosaminoglycan danaparoid sodium (Orgaran®, Organon Inc., West Orange, N.J.) in 0.32% citrate or in plasma anticoagulated with 0.32% citrate. Enoxaparin is commonly used clinically as a low molecular weight heparin (LMWH). Danaparoid is commonly used clinically as a non-heparin glycosaminoglycan anticoagulant. Currently, the only FDA approved drug to target UFH is protamine, which is not effective in vivo against LMWH or a non-heparin glycosaminoglycan such as danaparoid. Buffer and ATIII are added to form the heparin/ATIII complex, peptide is added, then Factor Xa, reporter dye substrate for Factor Xa activity, and stop solution, and the dye concentration is read at 405 nm. The absorbance of the dye increases with increasing Factor Xa activity, and thus is inversely proportional to the heparin (anti-Factor Xa activity) concentration. Peptides were tested in plasma obtained from three volunteers (A, B, and C). Platelet function inhibitors PG12 and theophylline were added to the blood immediately upon collection.
Results. […] (ARKKAAKA)3VLVLVLVL (SEQ ID NO:5) and VLVL(ARKKAAKA)3ARKKCAKA (SEQ ID NO:38) were able to neutralize about 0.4 U/ml anti-Factor Xa activity of LMWH at a concentration of 12 μg/ml, which would be an effective dose for patients. (AKKARA)6 (SEQ ID […]), (ARKKAAKA)4 (SEQ ID NO:31) and (ARKKAAKA)3ARKKCAKA […] 0.3-0.35 U/ml. In contrast, 12 μg protamine only neutralized about 0.25 U/ml of LMWH under these conditions.

[2] = test system: Lovenox ® Activity in Blood from Patients Treated with Lovenox ®; assay: Neutralizing Lovenox activity in blood from patients treated with Lovenox (anti-Factor Xa assay); format: biochemical, human; conditions: Peptide 12 μg/ml
Experimental: Blood was obtained from volunteers who were being treated with Lovenox® for their medical conditions after obtaining signatures on informed consent forms as approved by the Institutional Review Board. The assays to test neutralization of Lovendx® were performed as described for Table 2. A dose response from 1-60 μg/ml was evaluated as in Table 2.
The dose response pattern for the effective peptides was similar to the dose response in control plasma to which Lovenox® had been added. Each data point represents the mean and standard deviation of triplicate analyses on the same sample of blood from each patient.

For “VLVL(ARKKAAKA)3ARKKCAKA (VLVLARKKAAKAARKKAAKAARKKAAKAARKKCAKA; Fragment)”, which “rank as neutralizing agent of Lovenox” value [1] is on record?
Its value is “most effective neutralizing agents”.

And the “Lovenox ® Neutralized” value ([1]; 1 μg/ml Peptide, A Plasma)?
Its value is 0.080 ± .036 U/ml.

What about the “Lovenox ® Neutralized” value ([1]; 1 μg/ml Peptide, B Plasma) of the same substance?
Its value is 0.071 ± 0.056 U/ml.

And the “Lovenox ® Neutralized” value ([1]; 1 μg/ml Peptide, C Plasma)?
Its value is 0.077 ± 0.055 U/ml.

And the “Lovenox ® Neutralized” value ([1]; 1 μg/ml Peptide, Citrate)?
Its value is 0.091 ± .053 U/ml.

And the “Lovenox ® Neutralized” value ([1]; 6 μg/ml Peptide, A Plasma)?
The value was 0.218 ± .026 U/ml.

What about the “Lovenox ® Neutralized” value ([1]; 6 μg/ml Peptide, B Plasma) of the same substance?
Its value is 0.233 ± 0.025 U/ml.

And the “Lovenox ® Neutralized” value ([1]; 6 μg/ml Peptide, C Plasma)?
Its value is 0.217 ± 0.154 U/ml.

And the “Lovenox ® Neutralized” value ([1]; 6 μg/ml Peptide, Citrate)?
Its value is 0.432 ± .086 U/ml.

And the “Lovenox ® Neutralized” value ([1]; 12 μg/ml Peptide, A Plasma)?
The value was 0.365 ± .076 U/ml.

What about the “Lovenox ® Neutralized” value ([1]; 12 μg/ml Peptide, B Plasma) of the same substance?
Its value is 0.290 ± 0.047 U/ml.

What about the “Lovenox ® Neutralized” value ([1]; 12 μg/ml Peptide, C Plasma) of the same substance?
Its value is 0.380 ± 0.045 U/ml.

And the “Lovenox ® Neutralized” value ([1]; 12 μg/ml Peptide, Citrate)?
Its value is 0.484 ± .012 U/ml.

What about the “anti-Factor Xa activity of LMWH neutralized” value ([1]; 12 μg/ml, plasma) of the same substance?
The value was “about 0.4 U/ml”.

And the “Lovenox ® Neutralized” value ([1]; 60 μg/ml Peptide, A Plasma)?
The value was 0.483 ± .070 U/ml.

What about the “Lovenox ® Neutralized” value ([1]; 60 μg/ml Peptide, B Plasma) of the same substance?
The value was 0.456 ± 0.029 U/ml.

What about the “Lovenox ® Neutralized” value ([1]; 60 μg/ml Peptide, C Plasma) of the same substance?
The value was 0.461 ± 0.05 U/ml.

What about the “Lovenox ® Neutralized” value ([1]; 60 μg/ml Peptide, Citrate) of the same substance?
The value was 0.550 ± .027 U/ml.

And the “Lovenox ® Neutralized” value ([1]; 120 μg/ml Peptide, A Plasma)?
The value was 0.674 ± .105 U/ml.

And the “Lovenox ® Neutralized” value ([1]; 120 μg/ml Peptide, B Plasma)?
The value was 0.515 ± 0.005 U/ml.

And the “Lovenox ® Neutralized” value ([1]; 120 μg/ml Peptide, C Plasma)?
The value was 0.483 ± 0.044 U/ml.

And the “Lovenox ® Neutralized” value ([1]; 120 μg/ml Peptide, Citrate)?
The value was 0.533 ± .017 U/ml.

What about the “anti-LMWH effect in citrate compared with plasma” value ([1]; Table 2A) of the same substance?
The value was “greater anti-LMWH effect in citrate than in plasma”.

What about the “Lovenox/LMWH neutralization compared with protamine” value ([1]; low concentrations, in the presence of plasma) of the same substance?
Its value is “more effective than protamine”.

And the “Lovenox ® Neutralized” value ([2]; blood of Lovenox-treated Patient Number 1)?
The value was 0.043 U/ml.

And the “Lovenox ® Neutralized” value ([2]; blood of Lovenox-treated Patient Number 2)?
The value was 0.335 U/ml.

What about the “Lovenox ® Neutralized” value ([2]; blood of Lovenox-treated Patient Number 3) of the same substance?
Its value is 0.008 U/ml.

What about the “Lovenox ® Neutralized” value ([2]; blood of Lovenox-treated Patient Number 4) of the same substance?
The value was 0.172 U/ml.

What about the “Lovenox ® Neutralized” value ([2]; blood of Lovenox-treated Patient Number 5) of the same substance?
The value was 0.110 U/ml.

What about the “Lovenox ® Neutralized” value ([2]; blood of Lovenox-treated Patient Number 8) of the same substance?
The value was 0.329 U/ml.

And the “Lovenox ® Neutralized” value ([2]; blood of Lovenox-treated Patient Number 9)?
The value was 0.200 U/ml.

And the “Lovenox ® Neutralized” value ([2]; blood of Lovenox-treated Patient Number 10)?
Its value is 0.184 U/ml.

And the “Lovenox ® Neutralized” value ([2]; blood of Lovenox-treated Patient Number 11)?
Its value is 0.240 U/ml.
